According to patent US20220144775A1, “HYDRAZIDE COMPOUND AND KINASE INHIBITOR” (NISSAN CHEMICAL CORPORATION, priority 2019, published 2022):

System: YAP
Test: YAP phosphorylation inhibitory action in SKOV3 (HTRF)
Type: cell-based, human
Details: 10 μM, 1 hr, non-treatment 100%
Protocol: Human ovarian cancer cell line SKOV3 (manufactured by DS Pharma Biomedical Co., Ltd.) was precultured using a 15% FBS-containing McCoy's 5a medium (manufactured by Sigma-Aldrich) (single layer culture). The above-mentioned cells in the logarithmic growth phase were washed with PBS. A 0.25% (w/v) trypsin-1 mmol/L ethylenediaminetetraacetic acid (EDTA) solution (manufactured by FUJIFILM Wako Pure Chemical Corporation) was added and the adherent cells were incubated at 37° C. for 3 min and detached. The above-mentioned medium was added, and the cells were centrifuged and resuspended in the same medium.
According to the method of patent document 1 (WO 2014/017513), a composition of 10% FBS-containing DMEM medium (Phenol-red free, manufactured by FUJIFILM Wako Pure Chemical Corporation) containing 0.015% (w/v) deacylated gellan gum (KELCOGEL CG-LA, manufactured by SANSHO Co., Ltd.) was prepared using FCeM-series Preparation Kit (manufactured by FUJIFILM Wako Pure Chemical Corporation). Then, various cells prepared above were suspended in the above-mentioned medium composition (3D culture conditions) added with deacylated gellan gum or a medium without the addition (2D culture conditions), and seeded on a 50 μL/well (manufactured by Corning Incorporated, a 96 well flat bottom plate, #3585, 2D culture conditions) or 25 μL/well (manufactured by Corning Incorporated, 96 well low adhesion flat bottom plate, #3474) at 100000 cells/well. The plate was allowed to stand at 37° C. in a 5% CO2 incubator, and the compound of the present invention diluted with the medium at 2 or 6 times the final concentration, DMSO, or the medium alone was added to the plate 3 hr after the seeding at 50 μL/well (2D culture conditions) or 5 μL/well (3D culture conditions) to make the final concentration of each compound 10 μM. After culture at 37° C. in a 5% CO2 incubator for 1 hr, the supernatant was aspirated, supplemented Lysis buffer (1-fold concentration, manufactured by Cisbio, YAP-total kit or YAP phospho-S27 kit) (50 μL) was added under 2D culture conditions, and supplemented Lysys buffer (4-fold concentration) (10 μL) was added to the culture supernatant under 3D conditions, and the mixture was stirred by a plate shaker for 30 min. Thereafter, the plate was centrifuged, 16 μL of the supernatant was transferred to a 384-well white plate (Corning, #4512), and each antibody solution (pYAP d2 antibody or Total-YAP d2 antibody, and pYAP Cryptate antibody or Total-YAP Cryptate antibody) included in the kit was added at 4 μL/well in total, and the mixture was allowed to stand at room temperature overnight. As a blank control, pYAP Cryptate antibody or Total-YAP Cryptate antibody alone was added to cells free of stimulation with compound and the mixture was treated in the same manner. The next day, the wavelengths at 665 nm and 615′ nm were measured in the HTRF mode of EnVision (manufactured by PerkinElmer).
The obtained signal was calculated as follows. Ratio=signal (665 nm)/signal (615 nm)×10000, ΔR=Signal(Ratio)−Background fluorescence, and the relative phosphorylated YAP amount or total YAP amount for each compound when ΔR of the compound non-addition group (non-treatment) is 100% is shown in Tables 7 and 8 (2D culture), and Tables 9 and 10 (3D culture). From the results, it was shown that the compound of the present zo invention has a YAP phosphorylation inhibitory action under both 2D and 3D culture conditions.

Row | SMILES | phosphorylated YAP amount (%) (2D culture conditions) | total YAP amount (%) (2D culture conditions) | phosphorylated YAP amount (%) (3D culture conditions) | total YAP amount (%) (3D culture conditions)
1 | CC/C(=N\NC(=O)C(C)Nc1cccnc1)c1ccc(O)c(C)c1O (centres unmarked) [A-004, (E)-N′-(1-(2,4-dihydroxy-3-methylphenyl)propylidene)-2-(pyridin-3-ylamino)propanehydrazide] | 19% | 87% | 33% | 105%
2 | CC/C(=N\NC(=O)C(C)Nc1cncc(F)c1)c1ccc(O)c(C)c1O (centres unmarked) [A-007] | 16% | 91% | 21% | 96%
